Data: patent US20250250251A1, “PIPERIDINYLPYRIDINYLCARBONITRILE DERIVATIVES AS INHIBITORS OF GLUTAMINYL-PEPTIDE CYCLOTRANSFERASE AND GLUTAMINYL-PEPTIDE CYCLOTRANSFERASE LIKE PROTEIN” (Boehringer Ingelheim International GmbH, priority 2024, published 2025)
Values belong to the compound of their own block, whether it stands above or below them.

Tests used:
CACO-2 cells = test: Assay C: permeability in CACO-2 cells; assay type: in vitro ADME; settings: pairs with and without 4-fluoropiperidyl, CACO2 cells
Description: (§1) Caco-2 cells (1-2×10^5 cells/1 cm^2 area) are seeded on filter inserts (Costar transwell polycarbonate or PET filters, 0.4 μm pore size) and cultured (DMEM) for 10 to 25 days. Compounds are dissolved in appropriate solvent (like DMSO, 1-20 mM stock solutions). […] The transport solution (TL) is applied to the apical or basolateral donor side for measuring A-B or B-A permeability (3 filter replicates), respectively. Samples are collected at the start and end of experiment from the donor and at various time intervals for up to 2 hours also from the receiver side for concentration measurement by HPLC-MS/MS or scintillation counting. Sampled receiver volumes are replaced with fresh receiver solution.
(§2) Efflux ratio (ER)=permeability B−A/permeability A−B

[1] = test system: SIRPα signalling induced by A549 cells; test: Assay B: SIRPα signalling assay using A549 cells; assay type: cell-based; settings: Homo sapiens, Table 4, compounds of the invention, read-out: Inhibition of SIRPα signalling induced by A549 cells: IC50
Description: Two cell types are independently used: the Raji cell line (lymphoblast-like human cell line derived from B lymphocytes from a Burkitt's lymphoma patient in 1963) and A549 cells (adenocarcinoma human alveolar basal epithelial cells).
Test compounds were dissolved in 100% DMSO and serially diluted into a white 384-well microtiter cell culture plate (PerkinElmer #60076780 in case of Raji assay; PDL-coated plates Greiner #781945 in case of A549 assay). 5000 Raji cells (ATCC #CC86) or 5000 A549 cells (ATCC #CCL-185) in Assay Complete Cell Plating reagent 30 (DiscoverX 93-0563R30B) were added per well. The assay plate was incubated for 48 h at 37° C., 95% humidity and 5% CO2. 15000 reporter cells (Jurkat PathHunter SIRPαV1, DiscoverX #93-1135C19) were added to each well, and the plate was incubated for 5 h at 37° C., 95% humidity and 5% CO2. Bioassay reagent 1 of the PathHunter Bioassay detection kit (DiscoverX 93-0001) was added to each well of the plate using a multichannel pipette followed by a 15 min incubation at room temperature. Afterwards bioassay reagent 2 was added followed by 60 min incubation at room temperature (incubation in the dark).
The analysis of the data was performed using the luminescence signal generated by beta-galactosidase in the PathHunter reporter cell line. The luminescence measurement was done using a Pherastar Multi-Mode Reader. Dose-response curves & IC50 data were calculated with 4-parameter sigmoidal dose response formula.

QPCTL = biological target: T1, QPCTL (Homo sapiens, UniProt Q9NXS2); test: Assay A: biochemical QPCTL activity assay (MALDI-TOF MS, CD47 peptide substrate); settings: Table 2, compounds of the invention, read-out: Inhibition of QPCTL: IC50
T1 construct: made in house
Description: (§3) QPCT or QPCTL dependent conversion of N-terminal glutamine to pyroglutamate of CD47 was monitored via MALDI-TOF MS. Test compounds were dissolved in 100% DMSO and serially diluted into clear 1,536-well microtiter plates. Enzymatic reactions were set up in assay buffer containing 20 mM Tris pH 7.5, 0.1 mM TCEP, 0.01% BSA, and 0.001% Tween20. […] The plates were incubated for 10 min in a humidified incubator at 24° C. Subsequently, 2.5 μL of CD47 peptide substrate surrogate (^19[…]^33) was added to each well (final concentration: 10 μM for QPCTL/20 μM for QPCT). The plates were mixed for 30 sec at 1,000 rpm and subsequently incubated for 40 min in a humidified incubator at 24° C. […] The plates were sealed with an adhesive foil, mixed for 30 s at 1,000 rpm and stored at room temperature until preparation of the MALDI target plates. MALDI target plates were prepared as described previously. […] QPCT or QPCTL activity was monitored by calculating the ratio between product and internal standard signals followed by normalization to high (100% activity) and low (0% activity) controls. Determination of compound potencies was obtained by fitting the dose-response data to a four-parameter logistical equation.

QPCT = biological target: T2, QPCT (Homo sapiens, UniProt Q16769); test: Assay A: biochemical QPCT activity assay (MALDI-TOF MS, CD47 peptide substrate); settings: Table 2, compounds of the invention, read-out: Inhibition of QPCT: IC50
T2 construct: purchased Origine (OriGene) TP700028
Description: as §3

[2] = test system: SIRPα signalling induced by Raji cells; test: Assay B: SIRPα signalling assay using Raji cells; assay type: cell-based; settings: Homo sapiens, Table 4, compounds of the invention, read-out: Inhibition of SIRPα signalling induced by Raji cells: IC50
Description: Bioassay reagent 1 of the PathHunter Bioassay detection kit (DiscoverX 93-0001) was added to each well of the plate using a multichannel pipette followed by a 15 min incubation at room temperature. Afterwards bioassay reagent 2 was added followed by 60 min incubation at room temperature (incubation in the dark).
The analysis of the data was performed using the luminescence signal generated by beta-galactosidase in the PathHunter reporter cell line. The luminescence measurement was done using a Pherastar Multi-Mode Reader.

murine hepatocytes = test: Assay E: stability in murine hepatocytes; assay type: in vitro ADME, mouse; settings: Table 12, compounds of the invention, 1 μM, 5% species serum
Description: The metabolic degradation of the test compound is assayed in a murine hepatocyte suspension.
Murine hepatocytes (typically cryopreserved) are incubated in an appropriate buffer system (e.g. Dulbecco's modified eagle medium plus 3.5 μg glucagon/500 mL, 2.5 mg insulin/500 mL and 3.75 mg/500 mL hydrocortison) containing 5% species serum.
Following a (typically) 30 min preincubation in an incubator (37° C., 10% CO2) 5 μl of test compound solution (80 μM; from 2 mM in DMSO stock solution diluted 1:25 with medium) are added into 395 μl hepatocyte suspension (cell density in the range 0.25-5 Mio cells/mL, typically 1 Mio cells/mL; final concentration of test compound 1 μM, final DMSO concentration 0.05%).
The cells are incubated for six hours (incubator, orbital shaker) and samples (25 μl) are taken at 0, 0.5, 1, 2, 4 and 6 hours. Samples are transferred into acetonitrile and pelleted by centrifugation (5 min). The supernatant is transferred to a new 96-deepwell plate, evaporated under nitrogen and resuspended.
Decline of parent compound is analyzed by HPLC-MS/MS
CLint is calculated as follows CL_[…]=Dose/AUC=(C0/CD)/(AUD+clast/k)×1000/60. C0: initial concentration in the incubation [μM], CD: cell density of vital cells [10e6 cells/mL], AUD: area under the data [μM×h], clast: concentration of last data point [μM], k: slope of the regression line for parent decline [h−1].
The calculated in vitro hepatic intrinsic clearance can be scaled up to the intrinsic in vivo hepatic Clearance and used to predict hepatic in vivo blood clearance (CL) by the use of a liver model (well stirred model).
[formula] [formula] [formula] • Hepatocellularity, mouse: 120×10e6 cells/g liver • Liver factor, mouse: 55 g/kg bodyweight • Blood flow, mouse: 90 ml/(min×kg)

CYP3A4 mRNA = test: Assay D: CYP induction screening assay in primary human hepatocytes; assay type: in vitro ADME; settings: Table 9, compounds of the invention, 48 h
Description: Cryopreserved plateable human hepatocytes (single donor. BioIVT) were thawed and plated in Collagen-I coated 96-well-plates at a cell density of 0.07 million cells per well.
After a 6 h attachment period, the seeding medium was replaced by serum-free William's medium E supplemented with Matrigel (0.25 mg/ml) and allowed to recover overnight. 24 h post-seeding, serum-free Williams E medium containing the test compound at a final concentration of […] and a final DMSO content of 0.1% and 0.1% DMSO (solvent-treated control), respectively, was added to predefined wells. Exposure solutions were renewed after 24 h.
After 48 h of treatment in total, the effect of the test compounds on CYP3A4 mRNA expression was assessed using the QuantiGene Plex Gene Expression Assay. Hepatocytes were lysed and total RNA was extracted using the QuantiGene Sample Processing Kit according to the instructions of the manufacturer.
mRNA quantification was conducted using a customized QuantiGene Plex Panel to analyse CYP3A4 and the housekeeper genes RPL32, EIF4E2 and GUSB according to the instructions of the manufacturer and measured on a Luminex™ instrument. Signal was reported as median fluorescence intensity (MFI), which is proportional to the number of target RNA molecules present in the sample.
For calculation of CYP3A4 mRNA induction, the signal for CYP3A4 was normalized against the geometric mean of the signal obtained for the housekeeper genes for hepatocytes exposed to test compounds in relation to solvent-treated samples according to the following equation: […]

[3] = Assay C: permeability in CACO-2 cells; assay type: in vitro ADME; settings: human, pH 7.2, Table 7, compounds of the invention, CACO-2 cells; for efflux ratio: permeability B-A/permeability A-B, read-out: Efflux Ratio
Description: as §1, §2

T1 sequence (Q9NXS2 whole entry, species assumed): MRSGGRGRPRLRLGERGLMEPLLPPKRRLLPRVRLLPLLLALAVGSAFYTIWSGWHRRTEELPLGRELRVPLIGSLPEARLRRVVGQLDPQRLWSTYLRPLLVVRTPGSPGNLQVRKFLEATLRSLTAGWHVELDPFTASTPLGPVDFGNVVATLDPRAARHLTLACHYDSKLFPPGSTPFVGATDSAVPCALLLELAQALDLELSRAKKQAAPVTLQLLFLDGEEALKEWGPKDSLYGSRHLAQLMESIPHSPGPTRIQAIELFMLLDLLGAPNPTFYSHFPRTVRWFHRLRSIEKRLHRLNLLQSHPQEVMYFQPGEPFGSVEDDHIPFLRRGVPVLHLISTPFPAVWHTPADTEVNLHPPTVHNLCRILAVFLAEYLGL
T2 sequence (Q16769 29-361): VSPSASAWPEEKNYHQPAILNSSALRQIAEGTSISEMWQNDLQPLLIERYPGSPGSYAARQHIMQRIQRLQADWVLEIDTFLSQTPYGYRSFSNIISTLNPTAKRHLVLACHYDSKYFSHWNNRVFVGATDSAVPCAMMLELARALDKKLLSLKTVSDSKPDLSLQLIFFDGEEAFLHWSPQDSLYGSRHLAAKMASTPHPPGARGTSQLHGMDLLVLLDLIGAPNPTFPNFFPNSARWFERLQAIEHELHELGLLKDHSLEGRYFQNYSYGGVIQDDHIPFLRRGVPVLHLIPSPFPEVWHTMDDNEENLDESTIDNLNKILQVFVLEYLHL

CACO2 Perm. (CACO-2 cells): 1.0 10^−6 cm/sec
Compound: Cn1cnnc1C1CCN(c2c(C#N)cc(C(F)(F)F)nc2-c2cnc3nn(C(C)(C)C)c(Cl)c3c2)CC1

CACO2 Perm. (CACO-2 cells): 23.0 10^−6 cm/sec
Compound: Cn1cnnc1C1CCN(c2c(C#N)cc(Cl)cc2-c2ccc(F)nc2)CC1 [Compound 18 in WO 2024/020517]

CACO2 Perm. (CACO-2 cells): 9.0 10^−6 cm/sec
Compound: Cn1cnnc1C1CCN(c2c(C#N)cc(C(F)(F)F)cc2-c2ccc(F)nc2)CC1 [Compound 70 in WO 2024/020517]

CACO2 Perm. (CACO-2 cells): 24.0 10^−6 cm/sec
Compound: Cn1cnnc1C1CCN(c2c(C#N)cc(F)cc2-c2ccc(F)nc2)CC1 [Compound 130 in WO 2024/020517]

CACO2 Perm. (CACO-2 cells): 1.8 10^−6 cm/sec
Compound: Cn1cnnc1C1CCN(c2c(-c3ccc(F)nc3)ccnc2C#N)CC1 [Compound 132 in WO 2024/020517]

CACO2 Perm. (CACO-2 cells): 4.8 10^−6 cm/sec
Compound: Cn1cnnc1C1CCN(c2c(C#N)ccnc2-c2ccc(F)nc2)CC1 [Compound 133 in WO 2024/020517]

CACO2 Perm. (CACO-2 cells): 28.0 10^−6 cm/sec
Compound: Cn1cnnc1C1(F)CCN(c2c(C#N)ccnc2-c2ccc(F)nc2)CC1 [Example 1 in EP 22188580.9]

CACO2 Perm. (CACO-2 cells): 47.0 10^−6 cm/sec
Compound: Cn1cnnc1C1(F)CCN(c2c(C#N)cc(C(F)(F)F)nc2-c2cnc3nn(C(C)(C)C)c(Cl)c3c2)CC1 [Example 3 in EP 23189886.7]

CACO2 Perm. (CACO-2 cells): 40.5 10^−6 cm/sec
Compound: Cn1cnnc1C1(F)CCN(c2c(C#N)cc(C(F)(F)F)cc2-c2ccc(F)nc2)CC1 [Example 4 in EP 23161417.3]

CACO2 Perm. (CACO-2 cells): 99.5 10^−6 cm/sec
Compound: Cn1cnnc1C1(F)CCN(c2c(C#N)cc(C(F)(F)F)nc2-c2cnc3nn(C(C)(C)C)c(C(F)(F)F)c3c2)CC1 [Example 4 in EP 23189886.7]

CACO2 Perm. (CACO-2 cells): 44.0 10^−6 cm/sec
Compound: Cn1cnnc1C1(F)CCN(c2c(C#N)cc(F)cc2-c2ccc(F)nc2)CC1 [Example 6 in EP 23161417.3]

CACO2 Perm. (CACO-2 cells): 11.0 10^−6 cm/sec
Compound: Cn1cnnc1C1(F)CCN(c2c(-c3ccc(F)nc3)ccnc2C#N)CC1 [Example 10 in EP 22188580.9]

CACO2 Perm. (CACO-2 cells): 3.7 10^−6 cm/sec
Compound: Cn1cnnc1C1CCN(c2c(C#N)cc(C(F)(F)F)nc2-c2cnc3nn(C(C)(C)C)c(C(F)(F)F)c3c2)CC1 [Example 13 in EP 23189886.7]

CACO2 Perm. (CACO-2 cells): 2.5 10^−6 cm/sec
Compound: Cn1cnnc1C1CCN(c2c(C#N)cc(Cl)cc2-c2cnc3nn(C(C)(C)C)cc3c2)CC1 [Example 17 in EP 23161417.3]

CACO2 Perm. (CACO-2 cells): 66.0 10^−6 cm/sec
Compound: Cn1cnnc1C1(F)CCN(c2c(C#N)cc(Cl)cc2-c2ccc(F)nc2)CC1 [Example 18 in EP 23161417.3]

CACO2 Perm. (CACO-2 cells): 18.0 10^−6 cm/sec
Compound: Cn1cnnc1C1(F)CCN(c2c(C#N)cc(Cl)cc2-c2cnc3nn(C(C)(C)C)cc3c2)CC1 [Example 19 in EP 23161417.3]

IC50 [1]: 27 nM
IC50 (QPCTL): 2 nM
IC50 (QPCT): 3 nM
IC50 [2]: 73 nM
Mouse Hepatocyte Stability QH (murine hepatocytes): <12%
n-fold induction of CYP3A4 at 10 μM (CYP3A4 mRNA): 1.1 n-fold
Papp A→B [3]: 3.4 ×10⁻⁶ cm/s
efflux ratio [3]: 17.9
Compound: Cn1cc(-c2cc(C#N)c(N3CCC(F)(c4nncn4C)CC3)c(-c3cnc4nn(C(F)(F)F)cc4c3)n2)cn1 [Example 24]

IC50 [1]: 52 nM
IC50 (QPCTL): 3 nM
IC50 (QPCT): 3 nM
IC50 [2]: 181 nM
Mouse Hepatocyte Stability QH (murine hepatocytes): 38%
n-fold induction of CYP3A4 at 10 μM (CYP3A4 mRNA): 0.8 n-fold
Papp A→B [3]: 3.1 ×10⁻⁶ cm/s
efflux ratio [3]: 16.8
Compound: Cc1ncc(-c2cc(C#N)c(N3CCC(F)(c4nncn4C)CC3)c(-c3cnc4nn(C(F)(F)F)cc4c3)n2)cn1 [Example 25]

IC50 [1]: 11 nM
IC50 (QPCTL): 1 nM
IC50 (QPCT): 1 nM
IC50 [2]: 4 nM
Mouse Hepatocyte Stability QH (murine hepatocytes): 27%
n-fold induction of CYP3A4 at 10 μM (CYP3A4 mRNA): 7.9 n-fold
Papp A→B [3]: 17 ×10⁻⁶ cm/s
efflux ratio [3]: 4.8
Compound: Cn1cnnc1C1(F)CCN(c2c(C#N)cc(C(F)(F)F)nc2-c2cnc3nn(C(C)(C)C)c(C4CC4)c3c2)CC1 [Example 26]

CACO2 Perm. (CACO-2 cells): 1.7 10^−6 cm/sec
Compound: Cn1cnnc1C1(F)CCN(c2c(-c3cnc4nn(C(C)(C)C)cc4c3)ccc(C(F)(F)F)c2C#N)CC1 [Example 30 in EP 23161417.3]
